Assay results from US20110243855A1, “METHOD AND IMAGING MEDIUM FOR USE IN THE METHOD” (priority 2007, published 2011).

Columns and labels:
[1] = Solid state polarisation after DNP, followed by solid state 13C-NMR; type: physicochemical; conditions: DNP at 1.2 K, 3.35 T, microwave 93.89 GHz, trityl radical and Gd-chelate
Text: The level of polarisation may for instance be determined by solid state ^13C-NMR measurements in solid hyperpolarised ^13C-acetate, e.g. solid hyperpolarised ^13C-acetate obtained by dynamic nuclear polarisation (DNP) of ^13C-acetate. The solid state ^13C-NMR measurement preferably consists of a simple pulse-acquire NMR sequence using a low flip angle. The signal intensity of the hyperpolarised ^13C-acetate in the NMR spectrum is compared with signal intensity of ^13C-acetate in a NMR spectrum acquired before the polarisation process. The level of polarisation is then calculated from the ratio of the signal intensities of before and after polarisation.
The probe is inserted into the probe-retaining container, submerged in the liquid helium and irradiated with microwaves. The microwave frequency may be determined from the EPR line of the DNP agent, which depends on the magnetic field of the magnet as 28.0 GHz/T. The optimal microwave frequency may be determined by adjusting the frequency for maximal NMR signal. Preferably, the optimal microwave frequency is in the about 94 GHz for a magnet charged to 3.35 T, 110 GHz for a magnet charged to 4 T, 140 GHz for a magnet charged to 5 T and 200 GHz for a magnet charged to 7 T. The power may be chosen between 50 and 200 mW, dependent on the probe size. The level of polarisation may be monitored as earlier described by for instance acquiring solid state ^13C-NMR signals of the probe during microwave irradiation. Generally, a saturation curve is obtained in a graph showing NMR signal vs. time. […] A solid state ^13C-NMR measurement suitably consists of a simple pulse-acquire NMR sequence using a low flip angle. […] The polarisation is then calculated from the ratio of the signal intensities before and after DNP.
To a micro test tube was added sodium ^13C1-acetate (Aldrich, 24.9 mg, 0.30 mmol) and 16 μl water. […] Polarisation was followed by solid state ^13C-NMR and the solid state polarisation was determined to be more than 20%. […]

[2] = Liquid state polarisation of the dissolved imaging medium by liquid state 13C-NMR; type: physicochemical; conditions: for liquid state polarisation: liquid state 13C-NMR at 400 MHz, after 75 min DNP, dissolved in phosphate buffer pH 7, 50 mM
Protocol: In a similar way, the level of polarisation for dissolved hyperpolarised ^13C-acetate may be determined by liquid state NMR measurements. Again the signal intensity of the dissolved hyperpolarised ^13C-acetate is compared with the signal intensity of the dissolved ^13C-acetate before polarisation. The level of polarisation is then calculated from the ratio of the signal intensities of ^13C-acetate before and after polarisation. Hyperpolarisation of NMR active ^13C-nuclei may be achieved by different methods which are for instance described in described in WO-A-98/30918, WO-A-99/24080 and WO-A-99/35508, and which all are incorporated herein by reference and hyperpolarisation methods known in the art are polarisation transfer from a noble gas, “brute force”, spin refrigeration, the parahydrogen method and dynamic nuclear polarisation (DNP).
(§1) After 75 minutes of dynamic nuclear polarisation, the obtained frozen polarised composition was dissolved in 6 ml phosphate buffer (20 mM, pH 7, 100 mg/l EDTA, 0.9% NaCl). The pH of the final solution containing the dissolved composition was 7.3±0.1. The sodium ^13C1-acetate concentration in said final solution was 50 mM.
Liquid state polarisation was determined by liquid state ^13C-NMR at 400 MHz to be 19%.
as §1, with “TRIS-^13C1-acetate-d3” for “sodium ^13C1-acetate”
Liquid state polarisation was determined by liquid state ^13C-NMR at 400 MHz to be 32%.

mouse myocardium = test: In vivo 13C-MR spectroscopy in mice (heart), conversion of hyperpolarised 13C-acetate to 13C-acetyl-CoA and 13C-acetylcarnitine; set-up: species or system C57Bl/6 mouse
Protocol: 200 μl of an imaging medium which was prepared as described in Example 3a was injected into a C57Bl/6 mouse over a time period of 6 s. The TRIS-^13C1-acetate concentration in said imaging medium was 75 mM and the polarisation was 20% at the time of injection. A ^13C-surface coil (diameter 12 mm) was placed over the mouse myocardium. A rat ^1H-body coil was used for anatomical reference images and localised shimming. ^13C-MR spectroscopy was carried out with a 2.4 T Bruker spectrometer. A dynamic set of ^13C-MR spectra (in total 30) was acquired every 3 s with a 30 degree RF pulse. From this experiment a ^13C1-acetylcarnitine signal build-up over the time of the experiment was clearly seen (FIG. 1).
(§2) 200 μl of an imaging medium which was prepared as described in Example 3a was injected into a C57Bl/6 mouse over a time period of 6 s. The TRIS-^13C1-acetate concentration in said imaging medium was approx. 50 mM. In both experiments (n=2) a ^13C-surface coil (diameter 12 mm) was placed over the mouse myocardium and ^13C-MR spectroscopy was carried out in a 2.4 T Bruker spectrometer. A spectrum was acquired 10 s after the imaging medium had been injected with a 90 degree RF pulse. […] The ratio of ^13C1-acetylcarnitine to ^13C1-acetyl-CoA was roughly 3 times higher in the heart than in the liver, see Example 6.

mouse liver = test: In vivo 13C-MR spectroscopy in mice (liver), conversion of hyperpolarised 13C-acetate to 13C-acetyl-CoA and 13C-acetylcarnitine; set-up: species or system C57Bl/6 mouse; conditions: 200 μl of approx. 50 mM, spectrum 10 s after injection, 90 degree pulse, n=2 (FIG. 2, 3)
Protocol: as §2, with “liver” for “myocardium”, “lower” for “higher”, “5.” for “6.”

solid state polarisation [1] | liquid state polarisation [2] [%] | polarisation at the time of injection ([2]; imaging medium 75 mM, at the time of injection into mouse) [%] | 13C1-acetylcarnitine signal build-up over the time of the experiment (mouse myocardium; 200 μl of 75 mM injected over 6 s, 30 spectra every 3 s, 30 degree pulse, 2.4 T (FIG. 1)) | identification of 13C1-acetyl-CoA and 13C1-acetylcarnitine (mouse myocardium; 200 μl of approx. 50 mM, spectrum 10 s after injection, 90 degree pulse, n=2 (FIG. 2, 3)) | identification of 13C1-acetyl-CoA and 13C1-acetylcarnitine (mouse liver) | Compound
more than 25% | 32 | – | – | – | – | NC(CO)(CO)CO.[2H]C([2H])([2H])[13C](=O)O [TRIS-^13C1-acetate-d3]
more than 25% | – | 20 | clearly seen | could be identified | could be identified | C[13C](=O)O.NC(CO)(CO)CO [TRIS-^13C1-acetate]
more than 20% | 19 | – | – | – | – | C[13C](=O)[O-].[Na+] [sodium ^13C1-acetate]
